In patent US20150031102A1, “METHODS AND COMPOSITIONS FOR ENHANCED PRODUCTION OF BUTANOL BY CLOSTRIDIA” (Butrolix LLC, priority 2012, published 2015):

Tested on: Clostridium acetobutylicum strain ATCC 824
Experiment: Sequential batch transfer in 24-well culture plates (butanol, residual glucose, butanol yield and productivity)
Assay type: cell-based
Conditions: for Residual glucose concentration: initial glucose 60 g/L
Protocol: Each well contained 1.5 mL of growth medium. Peptide was added to each well at the indicated concentration (0, 25, 50, and 100 nM). Every 24 hours fresh medium and peptide treatment were added to a new column of wells then 1.5 μL of the previous day culture was transferred to the new well. Wells were harvested for glucose and butanol analysis after 96 hours of growth. Transfers 1, 4, 7, 10, 13, 16, […].
Briefly, Clostridium spores were germinated in a suitable growth medium for 18-24 hours then […] was transferred to 1.5 mL of fresh medium in each of four wells on a 24-well culture plate. Three of the wells had been treated with 25 nM, 50 nM and 100 nM of peptide, respectively while the fourth well was untreated. Thereafter, every 24 hours […] of each subculture was transferred to 1.5 mL of fresh medium that contained the same peptide treatment or no treatment. Transfers of successive subcultures were done for 24 days, and each subculture was grown for 96 hours before being harvested. Culture supernatants were recovered following centrifugation and were analyzed for butanol and residual glucose concentrations. Determination of optimum peptide treatment levels was based on a graphical comparison of the concentration of butanol in each of the four culture wells for sequential transfers 1, 4, 7, 10, 13, 16, 19, 22 and 24.
Clostridium acetobutylicum strain ATCC 824 was used in all experiments and the growth medium used for sequential batch transfer, time course, and continuous culture experiments contained yeast extract, casamino acids, L-cysteine, L-asparagine, phosphate buffer, trace minerals, and 6% glucose. What are believed to be quorum-sensing peptides that were used in the experiments were chemically synthesized peptides SEQ ID NO: 143 (amino acid sequence: SYPGWSW) and SEQ ID NO: 144 (amino acid sequence: ILILISG). Routine growth of the bacteria as well as the sequential batch and time course experiments were conducted in a Form a Scientific Model 1029 anaerobic gas chamber at 32° C. Continuous cultures were performed at 32° C. using duplicate New Brunswick Scientific BioFlo 3000 apparati with a dilution rate of 0.01 volume per hour, 75 rpm agitation, and nitrogen gas sparging. Optical density of culture samples was measured at 600 nm in a Beckman DU 600 series spectrophotometer and glucose was analyzed using a YSI Model 2700 Select Biochemistry Analyzer with internal glucose calibration. Butanol concentrations were determined by measuring experimental and standard samples using a Varian Saturn 3 Gas Chromatograph/Mass Spectrometer and calculating butanol concentrations using standard curves.
(§1) Sequential batch transfer experiments were carried out in 24-well culture plates that contained 1.5 mL of medium per well. Peptide was added to each well at the indicated concentrations of 0 nM (control), 25 nM, 50 nM, or 100 nM. Every 24 hours, fresh medium and peptide treatments were added to a new column of wells. Then, 1.5 uL of the previous day culture was transferred to the new well. Wells were harvested for glucose and butanol analysis after 96 hours of growth; transfers 1, 4, 7, 10, 13, 16, 19, 22, and 24 were analyzed. Two representative experiments are shown in Tables 30 and 31 and FIGS. 14 and 15.
as §1, with “32” for “30”, “33” for “31”, “16” for “14”, “17.” for “15.”

[1] = 50 nM peptide, transfer 19, after 96 hours of culture, Expt. 1
[2] = 50 nM peptide, transfer 22, after 96 hours of culture, Expt. 1
[3] = 50 nM peptide, transfer 24, after 96 hours of culture, Expt. 1
[4] = 100 nM peptide, transfer 1, after 96 hours of culture, Expt. 1
[5] = 100 nM peptide, transfer 4, after 96 hours of culture, Expt. 1
[6] = 100 nM peptide, transfer 7, after 96 hours of culture, Expt. 1
[7] = 100 nM peptide, transfer 10, after 96 hours of culture, Expt. 1
[8] = 100 nM peptide, transfer 13, after 96 hours of culture, Expt. 1
[9] = 100 nM peptide, transfer 16, after 96 hours of culture, Expt. 1
[10] = 100 nM peptide, transfer 19, after 96 hours of culture, Expt. 1
[11] = 100 nM peptide, transfer 22, after 96 hours of culture, Expt. 1
[12] = 100 nM peptide, transfer 24, after 96 hours of culture, Expt. 1
[13] = BP1106213 first experiment, 25 nM, transfer 10

Substance: ILILISG (Derived from Clostridium acetobutylicum SEQ ID NO: 110) [peptide SEQ ID NO: 144]
- Butanol concentration [1]: 8.40 g/L
- Butanol productivity [1]: 0.09 g butanol/L-h
- Butanol yield [1]: 0.14 g butanol/g/glucose
- Butanol concentration (50 nM peptide, transfer 19, after 96 hours of culture, Expt. 2 (repeat), Table 58): 4.66 g/L
- Residual glucose concentration [1]: 0.0 g/L
- Residual glucose concentration (50 nM peptide, transfer 19, after 96 hours of culture, Expt. 2 (repeat), Table 45): 49.2 g/L
- Butanol concentration [2]: 14.14 g/L
- Butanol productivity [2]: 0.15 g butanol/L-h
- Butanol yield [2]: 0.23 g butanol/g/glucose
- Butanol concentration (50 nM peptide, transfer 22, after 96 hours of culture, Expt. 2 (repeat), Table 58): 4.22 g/L
- Residual glucose concentration [2]: 12.6 g/L
- Residual glucose concentration (50 nM peptide, transfer 22, after 96 hours of culture, Expt. 2 (repeat), Table 45): 40.2 g/L
- Butanol concentration [3]: 6.90 g/L
- Butanol productivity [3]: 0.07 g butanol/L-h
- Butanol yield [3]: 0.11 g butanol/g/glucose
- Butanol concentration (50 nM peptide, transfer 24, after 96 hours of culture, Expt. 2 (repeat), Table 58): 1.87 g/L
- Residual glucose concentration [3]: 43.2 g/L
- Residual glucose concentration (50 nM peptide, transfer 24, after 96 hours of culture, Expt. 2 (repeat), Table 45): 0.0 g/L
- Butanol concentration [4]: 1.78 g/L
- Butanol productivity [4]: 0.02 g butanol/L-h
- Butanol yield [4]: 0.03 g butanol/g/glucose
- Butanol concentration (100 nM peptide, transfer 1, after 96 hours of culture, Expt. 2 (repeat), Table 58): 1.19 g/L
- Residual glucose concentration [4]: 48.5 g/L
- Residual glucose concentration (100 nM peptide, transfer 1, after 96 hours of culture, Expt. 2 (repeat), Table 45): 55.8 g/L
- Butanol concentration [5]: 7.17 g/L
- Butanol productivity [5]: 0.07 g butanol/L-h
- Butanol yield [5]: 0.12 g butanol/g/glucose
- Butanol concentration (100 nM peptide, transfer 4, after 96 hours of culture, Expt. 2 (repeat), Table 58): 2.12 g/L
- Residual glucose concentration [5]: 0.0 g/L
- Residual glucose concentration (100 nM peptide, transfer 4, after 96 hours of culture, Expt. 2 (repeat), Table 45): 49.9 g/L
- Butanol concentration [6]: 5.62 g/L
- Butanol productivity [6]: 0.06 g butanol/L-h
- Butanol yield [6]: 0.09 g butanol/g/glucose
- Butanol concentration (100 nM peptide, transfer 7, after 96 hours of culture, Expt. 2 (repeat), Table 58): 2.11 g/L
- Residual glucose concentration [6]: 0.0 g/L
- Residual glucose concentration (100 nM peptide, transfer 7, after 96 hours of culture, Expt. 2 (repeat), Table 45): 49.4 g/L
- Butanol concentration [7]: 7.91 g/L
- Butanol productivity [7]: 0.08 g butanol/L-h
- Butanol yield [7]: 0.13 g butanol/g/glucose
- Butanol concentration (100 nM peptide, transfer 10, after 96 hours of culture, Expt. 2 (repeat), Table 58): 2.07 g/L
- Residual glucose concentration [7]: 0.1 g/L
- Residual glucose concentration (100 nM peptide, transfer 10, after 96 hours of culture, Expt. 2 (repeat), Table 45): 51.2 g/L
- Butanol concentration [8]: 6.37 g/L
- Butanol productivity [8]: 0.07 g butanol/L-h
- Butanol yield [8]: 0.11 g butanol/g/glucose
- Butanol concentration (100 nM peptide, transfer 13, after 96 hours of culture, Expt. 2 (repeat), Table 58): 1.54 g/L
- Residual glucose concentration [8]: 0.1 g/L
- Residual glucose concentration (100 nM peptide, transfer 13, after 96 hours of culture, Expt. 2 (repeat), Table 45): 49.7 g/L
- Butanol concentration [9]: 7.11 g/L
- Butanol productivity [9]: 0.07 g butanol/L-h
- Butanol yield [9]: 0.12 g butanol/g/glucose
- Butanol concentration (100 nM peptide, transfer 16, after 96 hours of culture, Expt. 2 (repeat), Table 58): 5.68 g/L
- Residual glucose concentration [9]: 0.1 g/L
- Residual glucose concentration (100 nM peptide, transfer 16, after 96 hours of culture, Expt. 2 (repeat), Table 45): 0.0 g/L
- Butanol concentration [10]: 5.55 g/L
- Butanol productivity [10]: 0.06 g butanol/L-h
- Butanol yield [10]: 0.09 g butanol/g/glucose
- Butanol concentration (100 nM peptide, transfer 19, after 96 hours of culture, Expt. 2 (repeat), Table 58): 2.61 g/L
- Residual glucose concentration [10]: 0.0 g/L
- Residual glucose concentration (100 nM peptide, transfer 19, after 96 hours of culture, Expt. 2 (repeat), Table 45): 0.0 g/L
- Butanol concentration [11]: 13.86 g/L
- Butanol productivity [11]: 0.14 g butanol/L-h
- Butanol yield [11]: 0.23 g butanol/g/glucose
- Butanol concentration (100 nM peptide, transfer 22, after 96 hours of culture, Expt. 2 (repeat), Table 58): 3.41 g/L
- Residual glucose concentration [11]: 0.6 g/L
- Residual glucose concentration (100 nM peptide, transfer 22, after 96 hours of culture, Expt. 2 (repeat), Table 45): 0.1 g/L
- Butanol concentration [12]: 7.20 g/L
- Butanol productivity [12]: 0.07 g butanol/L-h
- Butanol yield [12]: 0.12 g butanol/g/glucose
- Butanol concentration (100 nM peptide, transfer 24, after 96 hours of culture, Expt. 2 (repeat), Table 58): 3.29 g/L
- Residual glucose concentration [12]: 0.1 g/L
- Residual glucose concentration (100 nM peptide, transfer 24, after 96 hours of culture, Expt. 2 (repeat), Table 45): 0.1 g/L
- Increase in butanol yield (BP1106213, batch cultures (summary of findings)): more than 50%
- Transfers over which butanol production was enhanced (BP1106213, sequential batch cultures (summary of findings)): transfer 4 through transfer 16
- Butanol productivity [13]: 0.12 g butanol/1-hour
- Butanol yield [13]: 0.20 g butanol/g glucose
- Butanol yield and productivity greater than untreated control [13]: more than 50%
- Effect on butanol production versus untreated control (BP1106213 first experiment, 100 nM): generally resulted in decreased butanol production, or no difference from the untreated control
- Glucose consumption (BP1106213 first experiment, all treated and untreated cultures, transfer 4 through transfer 19): ~100%
- Effect on butanol production versus untreated control (BP1106213 repeated (second) experiment, on the whole): inhibit butanol production
- Increase in butanol over untreated control (SEQ ID NO: 144 first experiment, 25 nM, transfer 4): 31%
- Increase in butanol over untreated control (SEQ ID NO: 144 first experiment, 25 nM, transfer 10): 57%
- Increase in butanol over untreated control (SEQ ID NO: 144 first experiment, 25 nM, transfer 16): 21%
- Increase in butanol over untreated control (SEQ ID NO: 144 first experiment, 50 nM, transfer 4): 25%
- Increase in butanol over untreated control (SEQ ID NO: 144 first experiment, 50 nM, transfer 10): 46%
- Increase in butanol over untreated control (SEQ ID NO: 144 first experiment, 50 nM, transfer 16): 35%
- Increase in butanol over untreated control (SEQ ID NO: 144 second experiment, 25 nM, transfer 13): 283%
- Increase in butanol over untreated control (SEQ ID NO: 144 second experiment, 25 nM, transfer 16): 10%
- Increase in butanol over untreated control (SEQ ID NO: 144 second experiment, 50 nM, transfer 13): 85%
- Effect on differentiation and butanol production (some sequential cultures): inducer of differentiation and butanol production
